Reference: patent US20130011479A1, “DOUBLE-LAYER PHARMACEUTICAL FORMULATIONS CONTAINING OPIOID AGONISTS AND ANTAGONISTS” (L. MOLTENI & C. DEI FRATELLI ALITTI SOCIETA' DI ESERCIZIO …, priority 2010, published 2013)

Key:
[1] = Intrathecal screening of patients treated with opioids: adverse events / side-effects monitored at several time points; type: in vivo; design: key to vertigo / vomiting / pruritus / nausea / numbness / side-effects (grade printed beside morphine) / drowsiness / constipation / loss of appetite / urinary retention / sweating: (0) = none; (1) = mild; (2) = moderate; (3) = intense; (4) = severe
Experimental: (§1) A dose of opioids was administered with or without naltrexone and the adverse events or side-effects and anti-nociceptive effects were monitored at several time points.
(§2) In particular, patients with chronic (non-oncological) spinal pain and oncological patients in the non-terminal phase with evidence of side effects after minimum doses of opioids were monitored.

[2] = Intrathecal screening of patients treated with opioids: anti-nociceptive effects (Efficacy) monitored at several time points; type: in vivo
Experimental: Patients being treated with opioids underwent intrathecal screening, in which the evidence of side effects is extremely significant.
as §1, §2

[3] = Algoneurodystrophy, 2 h, without naltrexone
[4] = Back pain, 1 h, without naltrexone
[5] = Back pain, 2 h, without naltrexone
[6] = Back pain, 4 h, without naltrexone
[7] = Back pain, 24 h, without naltrexone
[8] = Cancer of the pancreas, without naltrexone
[9] = Diabetes mellitus type II, without naltrexone
[10] = Lumbago, 4 h, without naltrexone
[11] = Lumbago, 6 h, without naltrexone
[12] = Lumbago, 8 h, without naltrexone
[13] = Lumboischialgia in diabetic patients (VAS 6-7), without naltrexone
[14] = Lumboischialgia, without naltrexone
[15] = Lumbosacral spondylitis without myelopathy, 2 h-4 h, without naltrexone
[16] = Multiple sclerosis, without naltrexone
[17] = Nonspecific coccyx disorders, 6 h, without naltrexone
[18] = Persistent pain syndrome, without naltrexone
[19] = Right lumboischialgia, without naltrexone
[20] = Secondary bone and marrow malignancies (patient at r66), without naltrexone
[21] = Secondary bone and marrow malignancies (patient at r76), without naltrexone
[22] = Secondary malignancies of bone and marrow, without naltrexone
[23] = Stenosis of the lumbar spinal canal, without naltrexone
[24] = Persistent pain syndrome, with naltrexone
[25] = Right lumboischialgia, with naltrexone
[26] = Right lumboischialgia, with naltrexone, first mention in the cell
[27] = Right lumboischialgia, with naltrexone, second mention in the cell
[28] = Secondary bone and marrow malignancies (patient at r66), with naltrexone
[29] = Spinal pain, 4 h, with naltrexone
[30] = Spinal pain, 6 h, with naltrexone

SMILES: CN1CC[C@]23c4c5ccc(O)c4O[C@H]2[C@@H](O)C=C[C@H]3[C@H]1C5 [morphine]
- pruritus ([1]; Algoneurodystrophy, 6-8 h, without naltrexone): 6-8 h: pruritus (3), urinary
- pruritus ([1]; Algoneurodystrophy, 1 h, without naltrexone): 1 h: pruritus (3)
- pruritus [1, 3]: 2 h: pruritus (3)
- vertigo ([1]; Back pain, 30 min, without naltrexone): 30 min: vertigo (1)
- nausea [1, 4]: 1 h: vertigo (1), nausea (1)
- vertigo [1, 4]: 1 h: vertigo (1), nausea (1)
- vertigo [1, 5]: 2 h: vertigo (2), vomiting (2)
- vomiting [1, 5]: 2 h: vertigo (2), vomiting (2)
- nausea [1, 6]: 3
- vertigo [1, 6]: 2
- vomiting [1, 6]: vomiting (2)
- pruritus ([1]; Back pain, 8 h, without naltrexone): 8 h: pruritus (2)
- nausea [1, 7]: 24 h: nausea (2), vertigo (2)
- vertigo [1, 7]: 24 h: nausea (2), vertigo (2)
- constipation [1, 8]: constipation
- nausea [1, 8]: 3
- nausea [1, 9]: 3
- pruritus [1, 9]: 4
- drowsiness ([1]; Lumbago, 1 h, without naltrexone): 1 h: drowsiness (1)
- nausea [1, 10]: 4 h: nausea (2), vomiting (2)
- vomiting [1, 10]: 4 h: nausea (2), vomiting (2)
- nausea [1, 11]: 3
- pruritus [1, 11]: 6 h: pruritus (3), urinary reten-
- vomiting [1, 11]: 2
- nausea [1, 12]: 3
- pruritus [1, 12]: pruritus (3), urinary retention (3)
- vomiting [1, 12]: 2
- constipation [1, 13]: constipation
- drowsiness [1, 13]: drowsiness
- nausea [1, 13]: nausea
- oedema [1, 13]: moderate
- pruritus [1, 13]: pruritus
- nausea [1, 14]: nausea (2),
- pruritus [1, 14]: 2
- sweating [1, 14]: sweating (2), vertigo (2),
- vertigo [1, 14]: sweating (2), vertigo (2),
- vomiting [1, 14]: 3
- nausea [1, 15]: nausea
- vomiting [1, 15]: vomiting
- vomiting ([1]; Lumbosacral spondylitis without myelopathy, 6 h-8 h, without naltrexone): 6 h-8 h: vomiting
- constipation [1, 16]: constipation
- loss of appetite [1, 16]: loss of appetite
- nausea [1, 16]: nausea
- vertigo [1, 16]: vertigo
- vomiting ([1]; Nonspecific coccyx disorders, 4 h, without naltrexone): 4 h: recurrent vomiting
- nausea [1, 17]: 6 h: vomiting (3), nausea (3)
- vomiting [1, 17]: 6 h: vomiting (3), nausea (3)
- asthenia ([1]; Nonspecific coccyx disorders, 8 h, without naltrexone): 8 h: asthenia
- side-effects (grade printed beside morphine) ([1]; Nonspecific coccyx disorders, time not given, without naltrexone): morphine (0)
- nausea [1, 18]: nausea
- vertigo [1, 18]: vertigo
- vomiting [1, 18]: 4
- nausea [1, 19]: 2
- pruritus [1, 19]: 4
- vomiting [1, 19]: ing (2), urinary retention (2)
- constipation [1, 20]: constipation (3), drowsiness (3),
- drowsiness [1, 20]: constipation (3), drowsiness (3),
- constipation [1, 21]: tion (1)
- loss of appetite [1, 21]: nausea (4), loss of appetite (4),
- nausea [1, 21]: nausea (4), loss of appetite (4),
- vertigo [1, 21]: 4
- vomiting [1, 21]: vomiting
- constipation [1, 22]: constipation
- pruritus [1, 22]: pruritus (3)
- headache [1, 23]: headache
- nausea [1, 23]: 4
- pruritus [1, 23]: 1
- sweating [1, 23]: sweating
- vomiting [1, 23]: vomiting
- Efficacy [2, 3]: 2 h: 30-40%
- Efficacy ([2]; Algoneurodystrophy, 8 h, without naltrexone): 8 h: 80%
- Efficacy ([2]; Algoneurodystrophy, 14 h, without naltrexone): 14 h: 70%
- Efficacy ([2]; Lumbosacral spondylitis without myelopathy, 2 h-24 h, without naltrexone): 2 h-24 h: 80%
- Efficacy ([2]; Nonspecific coccyx disorders, without naltrexone): Efficacy <30%
- Efficacy [2, 21]: Efficacy: 100%

SMILES: O=C1CC[C@@]2(O)[C@H]3Cc4ccc(O)c5c4[C@@]2(CCN3CC2CC2)[C@H]1O5 [naltrexone]
- chest pain ([1]; Back pain, h 17.30, with naltrexone): chest pain
- tachycardia ([1]; Back pain, h 18.30, with naltrexone): h 18.30: tachycardia
- benefit ([1]; Diabetes mellitus type II, with naltrexone): benefit 100%
- drowsiness ([1]; Lumbago, 1 h, with naltrexone): 1 h: drowsiness (1)
- pruritus ([1]; Lumbago, 2 h, with naltrexone): 2 h: pruritus (2)
- drowsiness ([1]; Lumbago, 4 h, with naltrexone): 4 h: drowsiness (2), pruritus (2)
- pruritus ([1]; Lumbago, 4 h, with naltrexone): 4 h: drowsiness (2), pruritus (2)
- drowsiness ([1]; Lumbago, 6 h, with naltrexone): 1
- pruritus ([1]; Lumbago, 6 h, with naltrexone): 2
- constipation [1, 24]: constipation
- drowsiness [1, 24]: drowsiness
- nausea [1, 24]: nausea
- sweating [1, 24]: sweating
- vertigo [1, 24]: vertigo
- vomiting [1, 24]: vomiting
- side-effects ([1]; Persistent spinal pain syndrome of uncertain aetiology, with naltrexone): none
- nausea [1, 25]: 2
- vomiting [1, 25]: vomiting (2), urinary
- pruritus [1, 26]: 4
- urinary retention [1, 26]: 2
- pruritus [1, 27]: 1
- urinary retention [1, 27]: urinary retention (1)
- constipation [1, 28]: constipation (3), drowsiness
- drowsiness [1, 28]: 3
- urinary retention [1, 28]: short-lived
- pruritus improved by ([1]; Secondary malignancies of bone and marrow, with naltrexone): 90%
- numbness [1, 29]: 4 h: pruritus (1), numbness (1)
- pruritus [1, 29]: 4 h: pruritus (1), numbness (1)
- nausea [1, 30]: nausea (1)
- numbness [1, 30]: 6 h: pruritus (1), numbness (1),
- pruritus [1, 30]: 6 h: pruritus (1), numbness (1),
- nausea ([1]; Spinal pain, 8 h, with naltrexone): 8 h: nausea (1)
- nausea ([1]; Stenosis of the lumbar spinal canal, with naltrexone): nausea (1)
- Efficacy ([2]; Lumbago, 1 h, with naltrexone): 1 h: 30-50%
- Efficacy ([2]; Lumbago, 4 h-8 h, with naltrexone): 4 h-8 h: >50%
- Efficacy ([2]; Spinal pain, 1 h-8 h, at rest, with naltrexone): 1 h-8 h: at rest 100%, under
- Efficacy ([2]; Spinal pain, 1 h-8 h, under strain, with naltrexone): strain 70%
